These are literature values, as cited in patent publication US20130109746A1, “COMPOSITION COMPRISING ELLAGIC ACID AND A PARTICULAR CATIONIC SURFACTANT, AND COSMETIC USE THEREOF” (L'OREAL S.A., priority 2010, published 2013).

For the data set the following is noted: in water and in the solvents and oils commonly used in cosmetic compositions.

Take `O=c1oc2c(O)c(O)cc3c(=O)oc4c(O)c(O)cc1c4c23` [ellagic acid, 2,3,7,8-tetrahydroxy(1)benzopyrano(5,4,3-cde)(1)benzopyran-5,10-dione]: the solubility result is recorded as “very sparingly soluble”.
